# Experimental data from ChEMBL document CHEMBL6127119 (J Med Chem, 2024).
# Key:
# Type in all cases: functional
# Details in all cases: time 16-24 hrs
# Enterococcus faecium [1] = experiment: Antibacterial activity against vancomycin-resistant Enterococcus faecium harboring VanB phenotype incubated for 16 to 24 hrs by CLSI based broth microdilution method
# Klebsiella pneumoniae = experiment: Antibacterial activity against Klebsiella pneumoniae clinical isolate incubated for 16 to 24 hrs by CLSI based broth microdilution method
# Staphylococcus aureus [2] = experiment: Antibacterial activity against vancomycin-intermediate Staphylococcus aureus incubated for 16 to 24 hrs by CLSI based broth microdilution method
# Pseudomonas aeruginosa = experiment: Antibacterial activity against Pseudomonas aeruginosa PAO1 incubated for 16 to 24 hrs by CLSI based broth microdilution method
# Escherichia coli = experiment: Antibacterial activity against Escherichia coli AB1157 incubated for 16 to 24 hrs by CLSI based broth microdilution method
# Staphylococcus aureus [3] = experiment: Antibacterial activity against methicillin-susceptible Staphylococcus aureus incubated for 16 to 24 hrs by CLSI based broth microdilution method
# Enterococcus faecium [4] = experiment: Antibacterial activity against vancomycin-resistant Enterococcus faecium harboring VanA phenotype incubated for 16 to 24 hrs by CLSI based broth microdilution method
# Enterococcus faecium [5] = experiment: Antibacterial activity against vancomycin-resistant Enterococcus faecium harboring VanM phenotype incubated for 16 to 24 hrs by CLSI based broth microdilution method
# Acinetobacter baumannii = experiment: Antibacterial activity against Carbapenem-resistant Acinetobacter baumannii clinical isolate incubated for 16 to 24 hrs by CLSI based broth microdilution method
SMILES,MIC (Enterococcus faecium [1]) [µg/mL],MIC (Klebsiella pneumoniae) [µg/mL],MIC (Staphylococcus aureus [2]) [µg/mL],MIC (Pseudomonas aeruginosa) [µg/mL],MIC (Escherichia coli) [µg/mL],MIC (Staphylococcus aureus [3]) [µg/mL],MIC (Enterococcus faecium [4]) [µg/mL],MIC (Enterococcus faecium [5]) [µg/mL],MIC (Acinetobacter baumannii) [µg/mL]
CC(C)C[C@@H](N)C(=O)N[C@H]1C(=O)N[C@@H](CC(N)=O)C(=O)N[C@H]2C(=O)N[C@H]3C(=O)N[C@H](C(=O)N[C@H](C(=O)NCCCCCCN)c4cc(O)cc(O)c4-c4cc3ccc4O)[C@H](O)c3ccc(c(Cl)c3)Oc3cc2cc(c3O[C@@H]2O[C@H](CO)[C@@H](O)[C@H](O)[C@H]2O[C@H]2C[C@](C)(N)[C@H](O)[C@H](C)O2)Oc2ccc(cc2Cl)[C@H]1O,64,> 128,8,128,32,2,64,64,> 128
CC(C)C[C@@H](N)C(=O)N[C@H]1C(=O)N[C@@H](CC(N)=O)C(=O)N[C@H]2C(=O)N[C@H]3C(=O)N[C@H](C(=O)N[C@H](C(=O)NCCNC(=N)N)c4cc(O)cc(O)c4-c4cc3ccc4O)[C@H](O)c3ccc(c(Cl)c3)Oc3cc2cc(c3O[C@@H]2O[C@H](CO)[C@@H](O)[C@H](O)[C@H]2O[C@H]2C[C@](C)(N)[C@H](O)[C@H](C)O2)Oc2ccc(cc2Cl)[C@H]1O,128,> 128,2,> 128,32,0.5,32,32,128
CC(C)C[C@@H](N)C(=O)N[C@H]1C(=O)N[C@@H](CC(N)=O)C(=O)N[C@H]2C(=O)N[C@H]3C(=O)N[C@H](C(=O)N[C@H](C(=O)NCCCCCCNC(=N)N)c4cc(O)cc(O)c4-c4cc3ccc4O)[C@H](O)c3ccc(c(Cl)c3)Oc3cc2cc(c3O[C@@H]2O[C@H](CO)[C@@H](O)[C@H](O)[C@H]2O[C@H]2C[C@](C)(N)[C@H](O)[C@H](C)O2)Oc2ccc(cc2Cl)[C@H]1O,16,> 128,2,> 128,8,0.5,32,32,128
CC(C)C[C@@H](N)C(=O)N[C@H]1C(=O)N[C@@H](CC(N)=O)C(=O)N[C@H]2C(=O)N[C@H]3C(=O)N[C@H](C(=O)N[C@H](C(=O)O)c4cc(O)c(CNCCCCCCCCNC(=N)N)c(O)c4-c4cc3ccc4O)[C@H](O)c3ccc(c(Cl)c3)Oc3cc2cc(c3O[C@@H]2O[C@H](CO)[C@@H](O)[C@H](O)[C@H]2O[C@H]2C[C@](C)(N)[C@H](O)[C@H](C)O2)Oc2ccc(cc2Cl)[C@H]1O,128,> 128,4,128,32,1,64,32,128
CC(C)C[C@@H](N)C(=O)N[C@H]1C(=O)N[C@@H](CC(N)=O)C(=O)N[C@H]2C(=O)N[C@H]3C(=O)N[C@H](C(=O)N[C@H](C(=O)NCCOCCOCCNC(=N)N)c4cc(O)cc(O)c4-c4cc3ccc4O)[C@H](O)c3ccc(c(Cl)c3)Oc3cc2cc(c3O[C@@H]2O[C@H](CO)[C@@H](O)[C@H](O)[C@H]2O[C@H]2C[C@](C)(N)[C@H](O)[C@H](C)O2)Oc2ccc(cc2Cl)[C@H]1O,64,> 128,4,> 128,16,1,32,64,> 128
CC(C)C[C@@H](N)C(=O)N[C@H]1C(=O)N[C@@H](CC(N)=O)C(=O)N[C@H]2C(=O)N[C@H]3C(=O)N[C@H](C(=O)N[C@H](C(=O)NCc4ccc(-c5ccc(CCN)cc5)cc4)c4cc(O)cc(O)c4-c4cc3ccc4O)[C@H](O)c3ccc(c(Cl)c3)Oc3cc2cc(c3O[C@@H]2O[C@H](CO)[C@@H](O)[C@H](O)[C@H]2O[C@H]2C[C@](C)(N)[C@H](O)[C@H](C)O2)Oc2ccc(cc2Cl)[C@H]1O,8,> 128,1,> 128,16,0.25,4,16,> 128
